{
  "source": "BindingDB's records for doi:10.1021/jm000275p",
  "about": "(Merck Research Laboratories, 2001)",
  "key": {"[1]": {"target": "Gonadotropin-releasing hormone receptor (Canis familiaris)", "assay": "In vitro inhibition of binding to gonadotropin-releasing hormone receptor in dog"}, "[2]": {"target": "Gonadotropin-releasing hormone receptor (Macaca mulatta)", "assay": "In vitro inhibition of gonadotropin-releasing hormone receptor in rhesus monkey"}, "[3]": {"target": "Gonadotropin-releasing hormone receptor (Canis familiaris)", "assay": "Functional antagonism at gonadotropin-releasing hormone receptor in dog (PI turnover)"}, "[4]": {"target": "Gonadotropin-releasing hormone receptor (Macaca mulatta)", "assay": "Functional antagonism at the rhesus monkey gonadotropin-releasing hormone receptor"}},
  "data": [
    {"smiles": "Cc1cc(-c2c(OCC[C@@H]3CCN3)c3cc(C(=O)Nc4ccncn4)c(Cl)cc3[nH]c2=O)cc(C)c1C", "note": "[4-(2-Azetidin-2-yl-ethoxy)-7-chloro-2-oxo-3-(3,4,5-trimethyl-phenyl)-1,2-dihydro-quinoline-6-carboxylic acid pyrimidin-4-ylamide]", "values": [
      {"measurement": "IC50", "setting": "[1]", "result": 60, "unit": "nM"},
      {"measurement": "IC50", "setting": "[2]", "result": 0.5, "unit": "nM"},
      {"measurement": "IC50", "setting": "[3]", "result": 350, "unit": "nM"},
      {"measurement": "IC50", "setting": "[4]", "result": 7, "unit": "nM"}
    ]}
  ]
}
